These results are taken from patent publication US9908893B2 (Latvian Institute of Organic Synthesis, priority 2013, dated 2018).

Series [1] deals with A7R5 (rat aorta smooth muscle) cells. The experiment in a line: Intracellular Ca2+ measurements, Fluo-4 NW Calcium Assay Kit, KCl-induced [Ca2+]i increase. The series is classed as cell-based. The settings on record: for IC50: Rattus norvegicus, A7R5, read-out: Ca^2+ A7R5, IC50; for Ca^2+ antagonist effect compared with Verapamil: relative to Verapamil, A7R5 cells. Here is the method: Changes in intracellular [Ca^2+] concentration were studied using A7R5 (rat aorta smooth muscle) cells and Fluo-4 NW Calcium Assay Kit (“Invitrogen”, Sweden) according to manufacturer's instructions.
Changes in intracellular [Ca^2+]i concentration were studied using Fluo-4 NW Calcium Assay Kit (“Invitrogen”, Sweden) accordingly to manufacturer's instructions. The A7R5 (rat aorta smooth muscle) cells were grown at 37° C. in a humidified atmosphere with 5% CO2/95% air in DMEM medium containing 2 mM glutamine and supplemented with 10% FBS. The cells were seeded into 96 well plate at 10,000 cells/well and incubated for 72 h. The cells were loaded with […] for 45 min. The Fura-4NW loaded cells were pre-incubated in the dark for 15 minutes with tested compounds at concentrations from 0.8 to 100 μM. Then A7R5 cells were pre-treated with 1.5 mM CaCl2 for 5 minutes and KCl (50 mM) was added to A7R5 cells to induce [Ca^2+]i increase. Amlodipine, the well-known calcium channel inhibitor was used as the positive control.

Series [2] is described as follows: Basal toxicity test, neutral red, alternative LD50 calculated from IC50. The note with it: mouse, LD50, alternative LD50 calculated by formula from IC50 in NIH 3T3 cells. Here is the method:
A low therapeutic index of chemotherapy agents is due to affecting not only cancer formation but also normal cells.
9,000 NIH 3T3 cells/well were placed into 96-well plates for 24 h and then exposed to the test compound over a range of eight concentration (1-1000 μg/ml) for 24 h. Upon that, the cells were incubated with the neutral red dye for 4 h and then OD was determined at 540 nm. […] The IC50 values were calculated using the program Graph Pad Prism® 4.0

The target in another series is P-glycoprotein (P-gp) (Homo sapiens, UniProt P08183). The experiment in a line: Measurement of P-glycoprotein activity: rhodamine 123 accumulation in MES-SA and MES-SA/Dx5 cells. The note with it: summary of the P-gp, MRP1 and BCRP1 efflux assays. Here is the method: Thieno[2,3-b]pyridines of the formula (I) were tested to reveal MDR-blocking activity.
About 50,000 cells/well of the human uterine sarcoma cell line MESSA and MES-SA/Dx5 were seeded into the 96-well plates and incubated for 24 h. The MDR modulators were incubated with the cells for 15 min. […] The EC50 values were calculated using the program Graph Pad Prism® 4.0.

The IC50 is the concentration needed to halve the response being measured. A word on the LD50: it is the dose expected to kill half of the subjects tested.

Sequence of P-glycoprotein (P-gp) (P08183 whole entry): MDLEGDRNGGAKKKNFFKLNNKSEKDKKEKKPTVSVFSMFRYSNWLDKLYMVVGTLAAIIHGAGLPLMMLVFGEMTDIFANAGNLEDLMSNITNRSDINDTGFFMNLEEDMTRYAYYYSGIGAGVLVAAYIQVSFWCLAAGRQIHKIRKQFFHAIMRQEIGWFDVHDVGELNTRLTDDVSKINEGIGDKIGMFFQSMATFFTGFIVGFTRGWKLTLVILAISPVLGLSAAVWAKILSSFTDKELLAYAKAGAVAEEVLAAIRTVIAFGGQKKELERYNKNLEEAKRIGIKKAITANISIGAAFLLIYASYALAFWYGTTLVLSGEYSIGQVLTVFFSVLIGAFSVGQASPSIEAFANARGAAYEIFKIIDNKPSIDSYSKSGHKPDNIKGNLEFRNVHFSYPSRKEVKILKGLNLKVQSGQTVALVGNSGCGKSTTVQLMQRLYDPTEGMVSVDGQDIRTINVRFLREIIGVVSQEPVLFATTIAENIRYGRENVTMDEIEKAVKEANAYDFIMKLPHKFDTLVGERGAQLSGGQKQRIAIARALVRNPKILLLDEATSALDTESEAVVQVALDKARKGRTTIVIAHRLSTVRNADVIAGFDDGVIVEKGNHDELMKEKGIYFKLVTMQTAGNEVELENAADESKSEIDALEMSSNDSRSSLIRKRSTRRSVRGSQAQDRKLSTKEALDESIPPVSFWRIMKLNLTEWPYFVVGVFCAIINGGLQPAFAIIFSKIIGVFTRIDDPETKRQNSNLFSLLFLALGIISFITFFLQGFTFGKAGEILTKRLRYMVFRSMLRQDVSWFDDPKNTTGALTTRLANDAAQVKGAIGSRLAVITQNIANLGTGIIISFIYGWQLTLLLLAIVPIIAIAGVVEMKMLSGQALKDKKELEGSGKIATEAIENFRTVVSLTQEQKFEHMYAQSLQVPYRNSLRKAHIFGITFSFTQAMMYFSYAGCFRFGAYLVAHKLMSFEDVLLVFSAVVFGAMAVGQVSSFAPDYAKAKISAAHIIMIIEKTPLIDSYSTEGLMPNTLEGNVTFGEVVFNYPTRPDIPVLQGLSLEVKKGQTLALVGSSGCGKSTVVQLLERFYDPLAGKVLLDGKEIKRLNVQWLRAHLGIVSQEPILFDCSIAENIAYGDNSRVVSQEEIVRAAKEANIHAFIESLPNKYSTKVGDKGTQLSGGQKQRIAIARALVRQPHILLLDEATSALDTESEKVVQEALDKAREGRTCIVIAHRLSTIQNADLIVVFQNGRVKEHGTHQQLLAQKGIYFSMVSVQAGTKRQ

Consider `CCOC(=O)c1c(C)nc2sc(C(=O)c3ccc(OC)cc3)c(N)c2c1-c1ccc(O)cc1` [Compound 14, 3-Amino-4-(4-hydroxyphenyl)-2-(4-methoxybenzoyl)-6-methylthieno[2,3-b]-pyridine-5-carboxylic acid ethyl ester], for which the IC50 in series [1] worked out at 4.3 ± 0.7 µM. Moreover, the LD50 at 24 h in series [2] is 231 mg/kg.

Turning to `CCOC(=O)c1c(C)nc2sc(C(=O)c3ccc(F)cc3)c(N)c2c1-c1ccc(OC)c(OC)c1` [Compound 18, 3-Amino-4-(3,4-dimethoxyphenyl)-2-(4-fluorobenzoyl)-6-methylthieno[2,3-b]-pyridine-5-carboxylic acid ethyl ester], the IC50 in series [1] turned out to be 7 ± 1.2 µM. The 50% lethal dose (LD50) at 24 h in series [2] is above 2000 mg/kg.

Turning to `COCCOC(=O)c1c(C)nc2sc(C(=O)c3ccccc3)c(N)c2c1-c1cc(OC)c(OC)c(OC)c1` [Compound 32, 3-Amino-2-benzoyl-6-methyl-4-(3,4,5-trimethoxyphenyl)thieno[2,3-b]pyridine-5-carboxylic acid 2-methoxyethyl ester], in series [1], the IC50 was 2.2 ± 0.3 µM and the “Ca^2+ antagonist effect compared with Verapamil” value is recorded as “more than ten times lower”. In addition, the LD50 at 24 h in series [2] is above 2000 mg/kg.

As for `CCOC(=O)c1c(C)nc2sc(C(=O)c3ccc(OC)cc3)c(N)c2c1-c1ccc(OC)c(OC)c1` [Compound 20, 3-Amino-4-(3,4-dimethoxyphenyl)-2-(4-methoxybenzoyl)-6-methylthieno[2,3-b]-pyridine-5-carboxylic acid ethyl ester], the IC50 in series [1] came to 3 ± 0.4 µM. The median lethal dose (LD50) at 24 h in series [2] was 2040 mg/kg.

Consider `COC(=O)c1c(C)nc2sc(C(=O)c3ccc(OC)cc3)c(N)c2c1-c1cc(OC)c(OC)c(OC)c1` [Compound 10, 3-Amino-2-(4-methoxybenzoyl)-6-methyl-4-(3,4,5-trimethoxyphenyl)thieno[2,3-b]pyridine-5-carboxylic acid methyl ester], for which, on P-glycoprotein (P-gp), the “inhibition of MDR transport proteins (P-gp, MRP1, BCRP1), summary in words” value was “inhibit three MDR transport proteins: P-gp, MRP1 and BCRP1”. In addition, in series [1], the half-inhibitory concentration (IC50) is 9 ± 0.7 µM and the “Ca^2+ antagonist effect compared with Verapamil” value is on record as “more than ten times lower”. Besides, the LD50 at 24 h in series [2] was above 2000 mg/kg.

In the case of `CCOC(=O)c1c(C)nc2sc(C(=O)c3ccc(OC)cc3)c(N)c2c1-c1ccc(Cl)cc1` [Compound 28, 3-Amino-4-(4-chlorophenyl)-2-(4-methoxybenzoyl)-6-methylthieno[2,3-b]-pyridine-5-carboxylic acid ethylester], the IC50 in series [1] is above 100 µM. Further, in series [2], the 50% lethal dose (LD50) at 24 h was above 2000 mg/kg.

On to `CCOC(=O)c1c(C)nc2sc(C(=O)c3ccc(Cl)cc3)c(N)c2c1-c1ccc(OC)c(OC)c1` [Compound 19, 3-Amino-2-(4-chlorobenzoyl)-4-(3,4-dimethoxyphenyl)-6-methylthieno[2,3-b]-pyridine-5-carboxylic acid ethyl ester], for which the concentration for half-maximal inhibition (IC50) in series [1] was 11 ± 0.7 µM. The LD50 at 24 h in series [2] was above 2000 mg/kg.

Turning to `COc1ccc(C(=O)c2sc3nc(C)c(C(C)=O)c(-c4cc(OC)c(OC)c(OC)c4)c3c2N)cc1` [Compound 3, 5-Acetyl-3-amino-2-(4-methoxybenzoyl)-6-methyl-4-(3,4,5-trimethoxyphenyl)-thieno[2,3-b]pyridine], in series [1], the half-inhibitory concentration (IC50) is 14 ± 0.9 µM and the “Ca^2+ antagonist effect compared with Verapamil” value is “more than ten times lower”. Also, in series [2], the median lethal dose (LD50) at 24 h was above 2000 mg/kg.

Consider `CCOC(=O)c1c(C)nc2sc(C(=O)c3ccc(OC)cc3OC)c(N)c2c1-c1ccc(OC)c(OC)c1` [Compound 21, 3-Amino-2-(2,4-dimethoxybenzoyl)-4-(3,4-dimethoxyphenyl)-6-methyl-thieno[2,3-b]pyridine-5-carboxylic acid ethyl ester], for which the IC50 in series [1] was found to be 1.2 ± 0.2 µM. The LD50 at 24 h in series [2] was 2360 mg/kg.

For `COCCOC(=O)c1c(C)nc2sc(C(=O)c3ccc(OC)cc3)c(N)c2c1-c1cc(OC)c(OC)c(OC)c1` [Compound 34, 3-Amino-2-(4-methoxybenzoyl)-6-methyl-4-(3,4,5-trimethoxyphenyl)thieno[2,3-b]-pyridine-5-carboxylic acid 2-methoxyethyl ester], in series [1], the concentration for half-maximal inhibition (IC50) amounted to 3.1 ± 0.4 µM and the “Ca^2+ antagonist effect compared with Verapamil” value is listed as “more than ten times lower”. In addition, the LD50 at 24 h in series [2] was above 2000 mg/kg.

With `COC(=O)c1c(C)nc2sc(C(=O)c3ccc(OC)cc3OC)c(N)c2c1-c1cc(OC)c(OC)c(OC)c1` [Compound 11, 3-Amino-2-(2,4-dimethoxybenzoyl)-6-methyl-4-(3,4,5-trimethoxyphenyl)thieno[2,3-b]pyridine-5-carboxylic acid methyl ester], on P-glycoprotein (P-gp), the “inhibition of MDR transport proteins (P-gp, MRP1, BCRP1), summary in words” value is “inhibit three MDR transport proteins: P-gp, MRP1 and BCRP1”. In series [1], the IC50 turned out to be 18 ± 1 µM and the “Ca^2+ antagonist effect compared with Verapamil” value is “more than ten times lower”. In addition, the LD50 at 24 h in series [2] is above 2000 mg/kg.

On to `COCCOC(=O)c1c(C)nc2sc(C(=O)c3ccc(OC)cc3)c(N)c2c1-c1ccc(OC)cc1` [Compound 31, 3-Amino-2-(4-methoxybenzoyl)-4-(4-methoxyphenyl)-6-methylthieno[2,3-b]-pyridine-5-carboxylic acid 2-methoxyethyl ester], for which the IC50 in series [1] is 21 ± 4 µM. Besides, in series [2], the LD50 at 24 h was above 2000 mg/kg.

For the compound `CCOC(=O)c1c(C)nc2sc(C(=O)c3ccc(OC)cc3)c(N)c2c1-c1ccc(OCC)cc1` [Compound 26, 3-Amino-4-(4-ethoxyphenyl)-2-(4-methoxybenzoyl)-6-methylthieno[2,3-b]-pyridine-5-carboxylic acid ethyl ester], the IC50 in series [1] is above 100 µM. Moreover, the 50% lethal dose (LD50) at 24 h in series [2] was above 2000 mg/kg.

For the compound `COCCOC(=O)c1c(C)nc2sc(C(=O)c3cccc(OC)c3)c(N)c2c1-c1cc(OC)c(OC)c(OC)c1` [Compound 33, 3-Amino-2-(3-methoxybenzoyl)-6-methyl-4-(3,4,5-trimethoxyphenyl)thieno[2,3-b]-pyridine-5-carboxylic acid 2-methoxyethyl ester], on P-glycoprotein (P-gp), the “inhibition of MDR transport proteins (P-gp, MRP1, BCRP1), summary in words” value was “selectively inhibit P-gp and BCRP1”. For the same compound, the IC50 in series [1] turned out to be 6.2 ± 0.7 µM. Further, in series [2], the LD50 at 24 h was above 2000 mg/kg.

Consider `CCOC(=O)c1c(C)nc2sc(C(=O)c3ccc(OC)cc3)c(N)c2c1-c1ccc(OC)cc1` [Compound 17, 3-Amino-2-(4-methoxybenzoyl)-4-(4-methoxyphenyl)-6-methylthieno[2,3-b]-pyridine-5-carboxylic acid ethyl ester], for which the half-maximal inhibitory concentration (IC50) in series [1] stood at 100 ± 11 µM. For the same compound, the LD50 at 24 h in series [2] is above 2000 mg/kg.

On to `COc1ccc(C(=O)c2sc3nc(C)c(C(C)=O)c(-c4ccc(OC)c(OC)c4)c3c2N)c(OC)c1` [Compound 2, 5-Acetyl-3-amino-2-(2,4-dimethoxybenzoyl)-4-(3,4-dimethoxyphenyl)-6-methyl-thieno[2,3-b]pyridine], for which the concentration for half-maximal inhibition (IC50) in series [1] came to 15 ± 1.1 µM. In series [2], the LD50 at 24 h is above 2000 mg/kg.

As to `COC(=O)c1c(C)nc2sc(C(=O)c3ccc(Cl)cc3)c(N)c2c1-c1cc(OC)c(OC)c(OC)c1` [Compound 9, 3-Amino-2-(4-chlorobenzoyl)-6-methyl-4-(3,4,5-trimethoxyphenyl)thieno[2,3-b]-pyridine-5-carboxylic acid methyl ester], the 50% inhibitory concentration (IC50) in series [1] was 3 ± 0.2 µM. The LD50 at 24 h in series [2] is 1420 mg/kg.

For the compound `COc1ccc(C(=O)c2sc3nc(C)c(C(C)=O)c(-c4ccc(OC)c(OC)c4)c3c2N)cc1` [Compound 1, 5-Acetyl-3-amino-4-(3,4-dimethoxyphenyl)-2-(4-methoxybenzoyl)-6-methyl-thieno[2,3-b]pyridine], the concentration for half-maximal inhibition (IC50) in series [1] was found to be 24 ± 1.2 µM. The LD50 at 24 h in series [2] is above 2000 mg/kg.

As to `COC(=O)c1c(C)nc2sc(C(=O)c3ccc(OC)cc3)c(N)c2c1-c1ccc(OC)cc1` [Compound 5, 3-Amino-2-(4-methoxybenzoyl)-4-(4-methoxyphenyl)-6-methyl-thieno[2,3-b]-pyridine-5-carboxylic acid methyl ester], in series [1], the IC50 was 15.4 ± 2 µM. Besides, in series [2], the LD50 at 24 h is above 2000 mg/kg.

As for `CCCCOC(=O)c1c(C)nc2sc(C(=O)c3ccc(OC)cc3)c(N)c2c1-c1cc(OC)c(OC)c(OC)c1` [Compound 30, 3-Amino-2-(4-methoxybenzoyl)-6-methyl-4-(3,4,5-trimethoxyphenyl)thieno[2,3-b]-pyridine-5-carboxylic acid butyl ester], the IC50 in series [1] was 5 ± 0.7 µM. For the same compound, the 50% lethal dose (LD50) at 24 h in series [2] was above 2000 mg/kg.

Consider `COC(=O)c1c(C)nc2sc(C(=O)c3ccc(OC)cc3OC)c(N)c2c1-c1ccc(OC)c(OC)c1` [Compound 7, 3-Amino-2-(2,4-dimethoxybenzoyl)-4-(3,4-dimethoxyphenyl)-6-methyl-thieno[2,3-b]pyridine-5-carboxylic acid methyl ester], for which the IC50 in series [1] amounted to 5.6 ± 1.4 µM. For the same compound, in series [2], the 50% lethal dose (LD50) at 24 h is 1040 mg/kg.
